From US20240228474A1, “ANTIBACTERIAL COMPOUND” (DISCUVA LIMITED, priority 2021, published 2024)

Experiments:
[1] = test system: Proteus mirabilis (DSM 4479); test: MIC by broth microdilution (CLSI); format: cell-based; conditions: DSM4479
Procedure: Minimum Inhibitory Concentrations (MICs) versus Escherichia coli (NCTC 13441) and Klebsiella pneumoniae (NCTC 13438) (planktonic bacteria) were determined by the broth microdilution procedure in line with the guidelines of the Clinical and Laboratory Standards Institute (Clinical and Laboratory Standards Institute. Methods for Dilution Antimicrobial Susceptibility Tests for Bacteria That Grow Aerobically, Approved Standard-Eleventh Edition, CLSI document M07, 11 Jan. 2018). The broth dilution method involved a two-fold serial dilution of compounds in 96-well microtitre plates, giving a final concentration range of 0.39-200 μM and a maximum final concentration of 2% DMSO. The bacterial strains tested were Escherichia coli (NCTC 13441) and Klebsiella pneumoniae (NCTC 13438). Strains were grown in cation-adjusted Müller-Hinton broth or on Luria Bertani agar at 37° C. in an ambient atmosphere. The MIC (μM) was determined as the lowest concentration of compound that inhibits growth following a 20-24 hour incubation period.
Minimum Inhibitory Concentrations (MICs) versus Proteus mirabilis (DSM 4479) were determined for compound (I) and comparative compounds (II) and (III) using the methodology outlined above.

[2] = Volume of distribution (Vss) from mouse plasma profiles; format: in vivo; conditions: mice, 5 mg/kg IV bolus, 2 compartment model
Procedure: The volume of distribution (Vss) of compound (I) and comparative compounds (II) and (III) was determined from analysis of plasma concentration time profiles obtained from rodent species (mice), following 5 mg/kg IV bolus administration respectively. The volume of distribution was obtained by analysing the rodent plasma profiles for compound (I) and comparative compounds (II) and (III) using a 2 compartment IV bolus model in PK Solver (Excel). The volume of distribution data for compound (I) and comparative compound (II) was collected in separate experiments carried out on different days, and compared in Table 6.

[3] = test system: E. coli BAA-2469 (NDM-1 positive); test: Murine bacteraemia / bloodstream infection proof-of-concept study, IV bolus; format: in vivo; conditions: single dose IV bolus 20 mg/kg, 9 h from initial infection
Procedure: (§1) Compound (I) and comparative compound (III) were evaluated in proof-of-concept studies in murine models for the treatment of a respiratory infection with Gram-negative bacteria of the order Enterobacterales, a bacteraemia or bloodstream infection with Gram-negative bacteria of the order Enterobacterales, and a urinary tract infection with Gram-negative bacteria of the order Enterobacterales. Each dot, triangle or square indicator represents a single mouse. LOD refers to the limit of detection of the bacteria. […] Each of the proof-of-concept studies was carried out separately. By vehicle is meant pharmaceutically acceptable carrier or excipient.
For the proof-of-concept study for the treatment of a bacteraemia or bloodstream infection with Gram-negative bacteria of the order Enterobacterales, CD-1 mice were infected with human urine isolate E. coli BAA-2469 (NDM-1 positive). One hour after infection (‘pre-treatment’ in FIG. 3), a vehicle (20% hydroxypropyl β cyclodextrin) containing no compound (I) or comparative compound (III), or a vehicle (20% hydroxypropyl β cyclodextrin) containing compound (I) or comparative compound (III), was administered by as a single dose IV bolus at 20 mg/kg.

[4] = Lipophilicity, Log P measured with SiriusT3 (octanol titration); format: physicochemical; conditions: octanol / aqueous sample solution
Procedure: Log P values of compound (I) and comparative compound (III) were measured using the SiriusT3 instrument from Sirius Analytical by performing an acid-based titration and measuring the shift in pKa when the sample solution is in contact with an immiscible solvent (octanol). Log P for the comparative compound (II) was calculated using Marvin (physico-chemical calculation software). The lipophilicity data for compound (I) and comparative compounds (II) and (III) was collected in separate experiments carried out on different days, and compared in Table 5.

[5] = test system: Klebsiella pneumoniae ATCC 43816; test: Murine respiratory infection proof-of-concept study, IV bolus; format: in vivo; conditions: 26 h from initial infection
Procedure: as §1, with “excipient. For the proof-of-concept study for the treatment of a respiratory infection caused or exacerbated by Gram-negative bacteria of the order Enterobacterales, CD-1 mice were infected with Klebsiella pneumoniae ATCC 43816. Two hours after infection (‘pre-treatment’ in FIG. 2), a vehicle (20% hydroxypropyl β cyclodextrin) containing no compound (I) or comparative compound (III), or a vehicle (20% hydroxypropyl β cyclodextrin) containing compound (I) or comparative compound (III), was administered by IV bolus at 20 mg/kg, TID (8 hrs apart), over one day.” for “excipient.”

[6] = test system: E. coli UT189; test: Murine urinary tract infection proof-of-concept study, IV bolus; format: in vivo; conditions: IV bolus 20 mg/kg TID over 3 days, 96 h after initial infection
Procedure: as §1, with “excipient. For the proof-of-concept study for the treatment of a urinary tract infection with Enterobacterales, female C3H/HeN mice were infected with E. coli UT189. Twenty-four hours after infection (‘pre-treatment’ in FIGS. 4a-c), a vehicle (20% hydroxypropyl β cyclodextrin) containing no compound (I) or comparative compound (III), or a vehicle (20% hydroxypropyl β cyclodextrin) containing compound (I) or comparative compound (III), was administered by IV bolus of 20 mg/kg, TID (8 hrs apart), over 3 days.” for “excipient.”

Structure (SMILES) | MIC [1] [µM] | Vd [2] [L/kg] | reduction of bacterial burden in the blood compared to vehicle ([3]; CD-1 mice) [log] | bacterial burden (CFU) in the blood at end of study [3] | logP [4] | reduction of bacterial burden in the lung compared to vehicle ([5]; CD-1 mice, IV bolus 20 mg/kg TID over one day) [log] | CFU value in lung relative to stasis level ([5]; IV bolus 20 mg/kg TID) | reduction of bacterial burden in the bladder compared to vehicle [6] [log] | reduction of bacterial burden in the urine compared to vehicle ([6]; female C3H/HeN mice) [log]
Cc1cc(-c2[nH]c(N)nc2-c2ccc3c(c2)N(C(=O)CN)CCO3)ccn1 [Comparative Compound (II)] | > 200 | 7.7 |  |  |  |  |  |  | 
Cc1cnccc1-c1[nH]c(N)nc1-c1ccc2c(c1)N(C(=O)CN)CCO2 [Comparative Compound (III), reference compound] | > 200 | 7.9 | 4.86 | remained on or above the stasis level | 1.03 | 4.16 | remained relatively close to the stasis level | 3.71 | 3.36
